Here are results for twelve compounds from patent publication US12599588B2, “Inhibitor for V-ATPase activity, antibacterial agent, medicine, antibacterial method and screening method” (Japan Science and Technology Agency, priority 2019, dated 2026).

Structures are written as SMILES. Entries after “also recorded” stand apart in the source; their conditions may differ. Read-outs that look alike come from different tables or passages of the source. A value given as a limit tells only on which side of the number the result lay.

Series [1] relates to Enterococcus faecium (vancomycin-resistant enterococci, VRE). The series can be described thus: Growth inhibition of pathogenic bacteria, VRE E. faecium. Format: cell-based. The conditions noted are these: pH 7.0, pH 7.5, pH 8.0; OD600. The protocol:
(§1) As the pathogenic bacteria, Enterococcus faecalis and Enterococcus faecium that are vancomycin-resistant enterococci (VRE), and Clostridium difficile that leads to deterioration of intestinal environment and is resistant to multiple drugs were prepared. The VRE were cultured by using culture media at pH 7.0, pH 7.5, and pH 8.0, the C. difficile was cultured by using culture media at pH 6.5, pH 7.0, and pH 7.5, and the difference in the number of bacteria was confirmed by measuring OD600.
(§2) The data of pH 7.0, pH 7.5, and pH 8.0 are shown in order from the top of FIG. 6. […] The data of pH 6.5, pH 7.0, and pH 7.5 are shown in order from the top of FIG. 7.

The test system of another series is E. faecium of VRE. The series can be described thus: Test in VRE-infected mice, number of live VRE in the intestine. Format: in vivo. The conditions noted are these: antibiotic-treated mice infected with E. faecium VRE. How it is done: Mice treated with antibiotics were infected with E. faecium of VRE, and V-161 was administered to the mice.
The test system of series [2] is enterococci (Enterococcus hirae). The experiment in a line: Growth experiment of enterococci (secondary screening), OD600 at pH 7.0 and pH 8.5. Conditions: for Specificity: growth inhibition at pH 8.5 versus pH 7.0. Format: cell-based. Set-up: Growth inhibition rate (%): concentration or dose not given beside the values. How it is done: In the culture of enterococci (Enterococcus hirae), a culture medium in which the Na^+ concentration had been adjusted by adding a buffer solution using 2% tryptone and 1% yeast extract as the base was used. In a case of adding glucose, glucose prepared in a 50% solution was added so as to be 1% into the culture medium when the culture medium was used. The whole amount 200 μL was cultured using a 96-well plate, and OD600 was measured every hour by using a plate reader. By using culture media at pH 7.0 and pH 8.5, the effect of pH on the growth was observed. In culture of bacteria, the pH often fluctuates largely due to the decomposition of the sugars required for the growth, and it is extremely important to maintain a constant pH in this experiment, and therefore, the pH was maintained constant with the addition of a buffer suitable for each pH. Since the V-ATPase is expressed only under an alkaline condition, the growth inhibition observed with the addition of an inhibitor is largely dependent on the pH.
IC50 and the like of the above 24 kinds of compounds are described in the following table. […] Furthermore, with respect to the symbol “n.a.”, a compound having a growth inhibition rate of 60% or more at pH 7.0 is determined that there was the growth inhibition. In addition, the growth inhibition rate of a compound having no clear inhibition is also recorded for reference.

Series [3] can be described thus: Oral administration to mice (intestinal environment), toxicity observation. Format: in vivo. The conditions noted are these: 20 mM suspension, 0.5 ml orally once a day, five days. How it is done:
To each of four mice, 0.5 ml of the suspension was orally administered once a day, and on five days after the start of administration, the mice were dissected and the feces and intestinal tract contents were collected, and the intestinal pH and sodium ion concentration were measured.

Series [4] addresses T1, V-ATPase (purified from enterococci or recombinant E. coli) (Enterococcus hirae, UniProt P43439+P43457).
T1 construct: made in house; host or cells: Enterococcus hirae (native) or recombinant E. coli
The series can be described thus: ATPase activity measurement (molybdenum blue method, primary screening). Format: biochemical. How it is done:
The ATPase activity can be measured by a molybdenum blue method for measuring absorbance of the inorganic phosphoric acid generated by hydrolysis of ATP. As the reaction conditions, conditions for measuring the ATPase activity can be adopted. As the buffer solution used in the reaction, Tris-HCl buffer can be used. The reaction time is usually 10 to 60 minutes, but can be appropriately adjusted depending on the air temperature or the like. The reaction of V-ATPase is terminated with the addition of a surfactant such as sodium dodecyl sulfate (SDS), and into which a color-developing liquid (such as ferrous sulfate) is added to give a color, and then the concentration of the inorganic phosphoric acid can be calculated by the measurement of the absorbance at a wavelength of 650 nm.
From the concentration of inorganic phosphoric acid calculated above, the inhibition rate of the V-ATPase reaction can be calculated. That is, a graph is created in which the inhibition rate is plotted on the vertical axis and the concentration of compound is plotted on the horizontal axis, and the concentration (IC50) at which the inhibition rate becomes 50% is determined. As the concentration of compound at which IC50 is obtained becomes lower, a higher V-ATPase inhibitory effect is exerted with a small amount, and accordingly, the compound can be taken as a candidate compound for the inhibitor for V-ATPase activity.
The V-ATPase was prepared by the method disclosed in the following papers. • Paper 1: Takeshi Murata, et. al, “Purification and Reconstitution of Na^+-translocating Vacuolar ATPase from Enterococcus hirae”, J. Biol. Chem. 272, 24885-24890 (1997) • Paper 2: Takeshi Murata, et. al, “Torque Generation of Enterococcus hirae V-ATPase”, J. Biol. Chem. 289, 31212-31223 (2014)
ATPase activity measurement was conducted by a molybdenum blue method that quantifies the inorganic phosphoric acid generated by hydrolysis of ATP with the use of absorbance measurement. The measurement was conducted in a 96-well plate, and 0.05% DDM (n-dodecyl-β-D-maltoside), 10 μg/mL of V-ATPase (purified from enterococci or recombinant E. coli), and 20 μM of a compound were added into a buffer (100 mM Tris-HCl at pH 8.5, 100 mM NaCl, 5 mM MgSO4, 10% glycerol). Into the mixture obtained above, ATP was added so as to be 5 mM, the whole amount was set to 100 μL, the reaction was started while stirring the mixture with a stirrer, and the reaction time was set to 30 minutes. Since the ATPase activity changes largely depending on the reaction temperature, the reaction time was adjusted within the range of 10 to 60 minutes corresponding to the air temperature on the day of the experiment. With the addition of 50 μL of 20% SDS, the V-ATPase was denatured and the reaction was terminated, and into the resultant mixture, 75 μL of color-developing liquid (5% ferrous sulfate, 1.6% ammonium molybdate, and 1 M sulfuric acid) was added to give a color. Immediately, the absorbance at a wavelength of 650 nm was measured by using a plate reader. Four kinds of KH2PO4 aqueous solutions of 0.2 mM, 0.5 mM, 1.0 mM, and 1.5 mM were reacted with MQ (ultrapure water) in the same experiment system, and then the activity of V-ATPase was measured by determining the concentration of generated inorganic phosphoric acid with the use of a created calibration curve. In this regard, a compound that had inhibited 50% or more of the activity of V-ATPase was diluted stepwisely so as to have a concentration of 10 μM, 5 μM, 2 μM, 1 μM, 500 nM, 200 nM, 100 nM, and 50 nM, and the measurement similar to the above was conducted.
From the results of the above measurement of ATPase activity, the inhibition rate was calculated comparing the decrease in the activity by assuming the activity under the condition of no compound addition as 100. A graph was created in which the inhibition rate was plotted on the vertical axis and the concentration of compound was plotted on the horizontal axis (FIG. 2). […]

The next series deals with Clostridium difficile. The experiment in a line: Growth inhibition of pathogenic bacteria, C. difficile. Format: cell-based. Conditions: pH 6.5, pH 7.0, pH 7.5; OD600. The protocol: as §1, §2
Series [5] has as its system Enterococcus faecalis (vancomycin-resistant enterococci, VRE). The experiment in a line: Growth inhibition of pathogenic bacteria, VRE E. faecalis. Format: cell-based. The conditions noted are these: pH 7.0, pH 7.5, pH 8.0; OD600. How it is done:
as §1, §2

Where [6] appears, read: Table 2, E. hirae growth, pH not stated (media pH 7.0 and pH 8.5).
Where [7] appears, read: IC50 (nM), Table 2, inhibition of V-ATPase ATPase activity, pH 8.5 buffer.
[8] abbreviates: high affinity for V-ATPase (IC50), unit inferred.
Setting [9] is: Table 2, inhibition of V-ATPase ATPase activity, pH 8.5 buffer, read-out: IC50.
Setting [10] is: Table 4, (1,2,4-oxadiazol-3-yl)phenyl derivatives.
Where [11] appears, read: IC50 (nM), Table 4, (1,2,4-oxadiazol-3-yl)phenyl derivatives.

As to `Cc1ccc2nc(-c3ccc(N(C)C)cc3)[nH]c2c1` [Compound V-161, N,N-dimethyl-4-(6-methyl-1H-benzo[d]imidazol-2-yl)aniline], the “growth of E. faecium (VRE) (FIG. 6)” value in series [1] was “inhibited in a pH-dependent manner; also recorded: more strongly affected by the V-161 than E. faecalis”. Besides, the “decrease of VRE in the cecum, large intestine, and feces versus controls (FIG. 10)” value in the series on E. faecium of VRE (cecum, large intestine, feces) was “around 50%”. Besides, the “decrease of VRE in the small intestine versus controls (FIG. 10)” value with E. faecium of VRE (small intestine) is given as 97%. The “non-specific inhibition / non-specific bond” value in series [2] is given as “no non-specific inhibition”. The “Growth inhibition rate (%)” value in series [2] (setting [6]) worked out at 88.7%; in series [2] (Table 3, 2-phenyl benzimidazole derivatives), 88.7%. Further, the Specificity entry in series [2] (Table 2) and in series [2] (Table 3) was “+ (there was no growth inhibition at pH 7.0 but was the growth inhibition at pH 8.5)” each time. In series [3], the toxicity in mice result is on record as “toxicity was not observed”. Besides, the half-inhibitory concentration (IC50) in series [4] (setting [7]) is 85 nM; in series [4] (IC50 (nM), Table 3, 2-phenyl benzimidazole derivatives) it was 85 nM; in series [4] (setting [8]) it was at most 400 nM. Besides, in the series with Clostridium difficile, the “growth of C. difficile (FIG. 7)” value was “inhibited even under a neutral or acidic condition”. In addition, the “growth of E. faecalis (VRE) (FIG. 6)” value in series [5] is recorded as “inhibited in a pH-dependent manner”.

With `CCOc1ccc2nc3cc(N)ccc3c(N)c2c1` [Compound V-170], the “Growth inhibition rate (%)” value in series [2] (setting [6]) turned out to be 49.7%. Moreover, the Specificity result in series [2] (Table 2) is given as “+ (there was no growth inhibition at pH 7.0 but was the growth inhibition at pH 8.5)”. Moreover, the IC50 in series [4] (setting [9]) was 10000 nM.

Regarding `N=C(N)Nc1nc(-c2ccccc2)c2cc(F)ccc2n1` [Compound V-171], the “Growth inhibition rate (%)” value in series [2] (setting [6]) worked out at 85.6%. For the same compound, the Specificity result in series [2] (Table 2) was “+ (there was no growth inhibition at pH 7.0 but was the growth inhibition at pH 8.5)”. In series [4] (setting [9]), the IC50 was 2500 nM.

Regarding `CCCOc1ccc(/C=N/NC(=N)N)c(OCCC)c1` [Compound V-189], the “Growth inhibition rate (%)” value in series [2] (setting [6]) stood at 91.2%. Further, in series [2] (Table 2), the Specificity entry is “+ (there was no growth inhibition at pH 7.0 but was the growth inhibition at pH 8.5)”. Moreover, in series [4] (setting [9]), the concentration for half-maximal inhibition (IC50) amounted to 4500 nM.

As for `COc1ccc(C(c2ccc3cccnc3c2O)N2CCOCC2)cc1` (stereo not drawn) [Compound V-201], the “Growth inhibition rate (%)” value in series [2] (setting [6]) came out at 19.6%. The Specificity entry in series [2] (Table 2) is “− (there was no growth inhibition in any case)”. Also, the IC50 in series [4] (setting [9]) stood at 4000 nM.

For the compound `O=C(c1cnc(Nc2nc3ccccc3o2)nc1)c1cc(Cl)cc(Cl)c1O` [Compound V-207], the “Growth inhibition rate (%)” value in series [2] (setting [6]) is given as 12.0%. Also, in series [2] (Table 2), the Specificity entry is recorded as “− (there was no growth inhibition in any case)”. Moreover, the IC50 in series [4] (setting [9]) was 5000 nM.

For `Cc1ccccc1OCc1nc(-c2ccc(NC(=O)c3cccs3)cc2)no1` [Compound V-234, N-(4-(5-((o-tolyloxy)methyl)-1,2,4-oxadiazol-3-yl)phenyl)thiophene-2-carboxamide], the “non-specific inhibition / non-specific bond” value in series [2] was “no non-specific inhibition”. Besides, the “Growth inhibition rate (%)” value in series [2] (setting [6]) and in series [2] (setting [10]) was 75.5% throughout. The Specificity result in series [2] (Table 2) was “+ (there was no growth inhibition at pH 7.0 but was the growth inhibition at pH 8.5)”. Also, the IC50 in series [4] (setting [7]) was 40 nM; in series [4] (setting [11]), 40 nM; in series [4] (setting [8]) it was at most 400 nM.

`CCCc1ccc(OCc2nc(-c3ccc(NC(=O)c4cccs4)cc3)no2)cc1` [Compound V-234-01]: the “Growth inhibition rate (%)” value in series [2] (setting [10]) is given as 76.9%. Besides, the 50% inhibitory concentration (IC50) in series [4] (setting [11]) is 50 nM.

Consider `Cc1cccc(OCc2nc(-c3ccc(NC(=O)c4cccs4)cc3)no2)c1C` [Compound V-234-02], for which the “Growth inhibition rate (%)” value in series [2] (setting [10]) was determined as 74.8%. The half-maximal inhibitory concentration (IC50) in series [4] (setting [11]) is 40 nM.

With `Cc1ccc(C(=O)Nc2ccc(-c3noc(COc4cccc(C)c4C)n3)cc2)s1` [Compound V-234-03], the “Growth inhibition rate (%)” value in series [2] (setting [10]) is listed as 72.0%. Also, in series [4] (setting [11]), the IC50 was determined as 6 nM.

Consider `O=C1N=C(O)N=C(O)C1=Cc1ccc(-c2ccc([N+](=O)[O-])cc2)o1` [Compound V-278], for which the “Growth inhibition rate (%)” value in series [2] (setting [6]) stood at 44.4%. Besides, the Specificity entry in series [2] (Table 2) is on record as “+ (there was no growth inhibition at pH 7.0 but was the growth inhibition at pH 8.5)”. In addition, the IC50 in series [4] (setting [7]) was found to be 250 nM.

As to `CCCOc1ccc(/C=N/Nc2nc3ccccc3[nH]2)c(OCCC)c1` [Compound V-289], in series [2] (setting [6]), the “Growth inhibition rate (%)” value came to 55.0%. For the same compound, in series [2] (Table 2), the Specificity result is listed as “+ (there was no growth inhibition at pH 7.0 but was the growth inhibition at pH 8.5)”. For the same compound, in series [4] (setting [9]), the half-maximal inhibitory concentration (IC50) was found to be 600 nM.

Usually IC50 stands for the concentration needed to halve the response being measured.
